Assay results published in the supplement of paper PMC10307832.

Experiments:
Assay in all cases: relative viability (nuclei count vs DMSO), 5 days (fraction); higher = more cells survive
Carfilzomib + Decitabine = compound: CC(C)C[C@H](NC(=O)[C@H](CCc1ccccc1)NC(=O)CN1CCOCC1)C(=O)N[C@@H](Cc1ccccc1)C(=O)N[C@@H](CC(C)C)C(=O)[C@@]1(C)CO1 [Carfilzomib] + Nc1ncn([C@H]2C[C@H](O)[C@@H](CO)O2)c(=O)n1 [Decitabine] (partner 2 µM)
How it was run: (§1)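 Relative viability was taken as the ratio of nuclei in treated wells to nuclei in vehicle wells. Lung cancer cell lines in 1536-well plates received compounds by pin tool one day after seeding, either one drug alone or a fixed anchor-drug dose plus five library-drug doses (not always all listed) in √10 steps. Nuclei were counted on 4× images after 5 days of treatment, and values are medians of duplicate plates.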

Carfilzomib + Tozasertib = compound: CC(C)C[C@H](NC(=O)[C@H](CCc1ccccc1)NC(=O)CN1CCOCC1)C(=O)N[C@@H](Cc1ccccc1)C(=O)N[C@@H](CC(C)C)C(=O)[C@@]1(C)CO1 [Carfilzomib] + Cc1cc(Nc2cc(N3CCN(C)CC3)nc(Sc3ccc(NC(=O)C4CC4)cc3)n2)n[nH]1 [Tozasertib] (partner 0.1 µM)
How it was run: as §1

Crizotinib + Linsitinib = compound: C[C@@H](Oc1cc(-c2cnn(C3CCNCC3)c2)cnc1N)c1c(Cl)ccc(F)c1Cl [Crizotinib] + C[C@]1(O)C[C@@H](c2nc(-c3ccc4ccc(-c5ccccc5)nc4c3)c3c(N)nccn32)C1 [Linsitinib] (partner 1 µM)
How it was run: as §1

Carfilzomib + OSI-027 = compound: CC(C)C[C@H](NC(=O)[C@H](CCc1ccccc1)NC(=O)CN1CCOCC1)C(=O)N[C@@H](Cc1ccccc1)C(=O)N[C@@H](CC(C)C)C(=O)[C@@]1(C)CO1 [Carfilzomib] + COc1cccc2cc(-c3nc([C@H]4CC[C@H](C(=O)O)CC4)n4ncnc(N)c34)[nH]c12 [OSI-027] (partner 0.5 µM)
How it was run: as §1

Cell Line | relative viability (Carfilzomib + Decitabine; first compound 0.001 µM) | relative viability (Carfilzomib + Decitabine; first compound 0.003162 µM) | relative viability (Carfilzomib + Decitabine; first compound 0.01 µM) | relative viability (Carfilzomib + Decitabine; first compound 0.03162 µM) | relative viability (Carfilzomib + Decitabine; first compound 0.1 µM) | relative viability (Carfilzomib + Tozasertib; first compound 0.001 µM) | relative viability (Carfilzomib + Tozasertib; first compound 0.003162 µM) | relative viability (Carfilzomib + Tozasertib; first compound 0.01 µM) | relative viability (Carfilzomib + Tozasertib; first compound 0.03162 µM) | relative viability (Carfilzomib + Tozasertib; first compound 0.1 µM) | relative viability (Crizotinib + Linsitinib; first compound 0.01 µM) | relative viability (Crizotinib + Linsitinib; first compound 0.03162 µM) | relative viability (Crizotinib + Linsitinib; first compound 0.1 µM) | relative viability (Crizotinib + Linsitinib; first compound 0.3162 µM) | relative viability (Crizotinib + Linsitinib; first compound 1 µM) | relative viability (Carfilzomib + OSI-027; first compound 0.001 µM) | relative viability (Carfilzomib + OSI-027; first compound 0.003162 µM) | relative viability (Carfilzomib + OSI-027; first compound 0.01 µM) | relative viability (Carfilzomib + OSI-027; first compound 0.03162 µM) | relative viability (Carfilzomib + OSI-027; first compound 0.1 µM)
NCI-H520 | 0.494 | 0.5 | 0.398 | 0.16 | 0.173 | 0.515 | 0.492 | 0.371 | 0.227 | 0.259 | 0.831 | 0.97 | 0.985 | 1.04 | 1.05 | 0.19 | 0.259 | 0.22 | 0.221 | 0.191
NCI-H596 | 0.904 | 0.999 | 1.03 | 1.16 | 0.308 | 1.16 | 0.878 | 0.721 | 0.222 | 0.168 | 0.971 | 1.16 | 1.07 | 1.19 | 1.15 | 0.657 | 1 | 0.684 | 0.372 | 0.149
NCI-H647 | 0.365 | 0.321 | 0.274 | 0.049 | 0.0498 | 0.452 | 0.378 | 0.171 | 0.141 | 0.0292 | 1.2 | 0.92 | 1.12 | 1.04 | 1.2 | 0.562 | 0.747 | 0.583 | 0.0357 | 0.0226
NCI-H650 | 0.342 | 0.314 | 0.316 | 0.31 | 0.139 |  | 0.9 | 0.745 | 0.588 | 0.157 | 0.858 | 0.868 |  | 0.596 | 0.894 |  | 0.612 | 0.54 | 0.439 | 0.221
NCI-H661 | 0.583 | 0.585 | 0.568 | 0.598 | 0.394 | 0.367 | 0.313 | 0.364 | 0.373 | 0.255 | 0.552 | 0.472 | 0.521 | 0.582 | 0.759 | 0.698 | 0.705 | 0.722 | 0.675 | 0.394
NCI-H727 | 0.897 | 0.937 | 0.836 | 0.9 | 0.746 | 0.708 | 0.754 | 0.602 | 0.438 | 0.378 | 0.305 | 0.282 | 0.261 | 0.271 | 0.409 | 0.618 | 0.646 | 0.734 | 0.463 | 0.242
NCI-H838 | 0.437 | 0.498 | 0.434 | 0.27 | 0.178 | 0.273 | 0.276 | 0.298 | 0.31 | 0.116 | 0.938 | 1.05 |  | 0.882 | 1.01 | 0.367 | 0.45 | 0.431 | 0.388 | 0.131
NCI-H1355 | 0.379 | 0.402 | 0.353 | 0.377 | 0.157 | 0.537 | 0.647 | 0.569 | 0.371 | 0.192 | 0.869 | 0.82 | 0.811 | 0.799 | 0.867 | 0.411 | 0.495 | 0.493 | 0.311 | 0.163
